Experimental data as given in US20250127906A1, “SMALL-MOLECULE DEGRADERS OF CDK8 AND CDK19” (University of South Carolina, priority 2021, published 2025).

Experiments:
CDK8/19-regulated genes = assay: QPCR of CDK8/19-regulated genes in HEK-293 wild-type and CDK8/19 double-knockout cells; assay type: cell-based, human; conditions: for effect on expression of CDK8/19-regulated genes: 200 nM, 3-day treatment
Protocol: CDK8/19 act as transcriptional regulators, and therefore we tested the effects of 3-day treatment with 200 nM PROTAC IA7886 along with 200 nM CDK8/19 kinase inhibitor BI-1347 on a series of CDK8/19-regulated genes, using QPCR.
We have also compared the stability of transcriptional changes induced by a PROTAC and by a kinase inhibitor. In the experiment shown in FIG. 10A, HEK-293 cells were treated with 200 nM of BI-1347 or IA7886 for 3 days, and then the inhibitors were washed off and the restoration of transcriptional changes was monitored 24 hrs and 48 hrs after wash-off.

Jurkat cells [1] = assay: Long-term growth of Jurkat cells under continuous treatment; assay type: cell-based, human; conditions: 300 nM continuous
Protocol: (§1) The anti-proliferative effects of a PROTAC and a kinase inhibitor were compared in leukemia cell lines. In the long-term treatment experiment shown in FIG. 11A, Jurkat cells (0.1 million cells) were continuously treated with vehicle control (0.1% DMSO), 300 nM BI-1347 or 300 nM IA7886 for 53 days (each condition in biological triplicates). Every 7-8 days, live cells were counted using BioRAD TC20 Automated Cell Counter with trypan blue staining: 0.1 million live cells were passaged to a new T25 flask to propagate under the same treatment conditions. The survival fraction was calculated by dividing the accumulated number of drug-treated cells with the accumulated number of vehicle-treated cells. […] This sustained inhibition property of PROTAC was also observed in MV4-11, a leukemia cell line highly sensitive to CDK8/19 kinase inhibitors.

MV4-11 cells = assay: Long-term growth of MV4-11 cells under continuous treatment; assay type: cell-based, human; conditions: MV4-11, 300 nM continuous
Protocol: as §1

Jurkat cells [2] = assay: Wash-off growth study in Jurkat cells; assay type: cell-based, human; conditions: pre-treated 200 nM for 8 days, then drug-free vs drug-containing media for 8 days
Protocol: We also compared the stability of short-term growth inhibition induced by a PROTAC and a kinase inhibitor in a wash-off study in Jurkat cells. In the experiment shown in FIG. 11C, Jurkat cells were pre-treated with 200 nM BI-1347 or IA7886 for 8 days before removal of drug-containing media and further cultured in either drug-containing (200 nM) or drug-free media for 8 days before counting cell numbers. Removal of BI-1347 led to 7.1 fold increase of the cell number while removal of IA7886 increased the cell number only 1.8 fold (FIG. 11C).

KMS-12-BM cells = assay: Concentration dependence of KMS-12-BM growth inhibition (CCK-8 assay); assay type: cell-based; conditions: Homo sapiens, 96 h, over 4 days
Protocol: Concentration dependence of KMS-12-BM growth inhibition over 4 days was determined for BI-1347 CDK8/19 kinase inhibitor and IA7886 PROTAC using CCK-8 assay (FIG. 13B).

SK-MM-2 cells = assay: SK-MM-2 multiple myeloma cell growth over 20 days continuous treatment; assay type: cell-based; conditions: BI1347 200 nM, Senexin C 1 μM, IA7886 200 nM, IA7843 1 μM
Protocol: The following CDK8/19 kinase inhibitors were tested for their effects on MM cell lines over 20 days continuous treatment: CDK8/19 kinase inhibitors BI1347 (200 nM) and Senexin C (1 μM), BI1347-derived PROTAC IA7886 (200 nM) and Senexin C-derived PROTAC IA7843 (1 μM). 1-4 million cells were treated with vehicle control (0.1% DMSO), or CDK8/19 kinase inhibitors or PROTACs for 20 days. Every 4 days, cells were counted using BioRAD TC20 Automated Cell Counter with trypan blue staining, and the same number of cells were passaged to a new T25 flask to propagate under the same treatment conditions.

CDK8 = CDK8 (Homo sapiens, UniProt P49336); assay: CDK8 degradation in HEK-293 cells (Western blot, normalized by GAPDH); assay type: cell-based; design: endogenous in cells; host or cells: HEK-293; conditions: HEK-293 cells
Protocol: Table 1 presents the structures of 35 different chimeras that have been synthesized, together with their effects (at 1 μM or 0.3 μM concentrations) on CDK8 degradation in HEK-293 cells. The synthesis schemes of all the compounds are described below. CDK8 degradation was measured by Western blot analysis of RIPA lysates of HEK-293cells treated with or without the test compound for 24 hours, using antibodies against CDK8 (Santa Cruz sc-1521) and housekeeping protein GAPDH (Santa Cruz sc-32233) (loading control) Protein bands on immunoblotted PVDF membranes were visualized with Western Lighting Plus ECL detection reagent (Perkin Elmer, Waltham, MA, USA) using ChemiDoc Touch™ (Bio-Rad). Image processing and densitometry analysis were performed using ImageLab software (Bio-Rad) to quantify the CDK8 protein levels (normalized by GAPDH) and evaluate the effects of compound treatment.
(§2) FIGS. 2F and 2G show the effects of different concentrations of potent Senexin C- and BI-1347-based PROTACs on CDK8 and CDK19 degradation in HEK-293cells. Based on these assays, we calculated DC50 values that correspond to PROTAC concentrations inducing degradation of CDK8 and CDK19 to the half of protein level in untreated cells. The corresponding CDK8 DC50 values were 46 nM for IA7843, 6.6 nM for IA7882 and 2.8 nM for IA7886, and CDK19 DC50 values were 1 μM for IA7843, 25 nM for IA7882 and 10 nM for IA7886.

CDK19 = CDK19 (Homo sapiens, UniProt Q9BWU1); assay: CDK19 degradation in HEK-293 cells (Western blot); assay type: cell-based; design: PROTACs on CDK8 and CDK19 degradation in HEK-293cells; endogenous in cells; host or cells: HEK-293; conditions: concentration degrading CDK19 to half of level in untreated cells
Excerpt: Furthermore, the degradation of both CDK8 and CDK19 by the PROTACs is also seen to decrease the levels of their binding partner cyclin C (CCNC) (FIG. 2B, D, E), which is known to be protected from proteolytic degradation by its interaction with CDK8 (Barette et al., 2001).
as §2

RPMI 8226 cells = assay: Concentration dependence of RPMI 8226 growth inhibition; assay type: cell-based; conditions: RPMI 8226, 4-day growth inhibition

CDK8, sequence (P49336 whole entry): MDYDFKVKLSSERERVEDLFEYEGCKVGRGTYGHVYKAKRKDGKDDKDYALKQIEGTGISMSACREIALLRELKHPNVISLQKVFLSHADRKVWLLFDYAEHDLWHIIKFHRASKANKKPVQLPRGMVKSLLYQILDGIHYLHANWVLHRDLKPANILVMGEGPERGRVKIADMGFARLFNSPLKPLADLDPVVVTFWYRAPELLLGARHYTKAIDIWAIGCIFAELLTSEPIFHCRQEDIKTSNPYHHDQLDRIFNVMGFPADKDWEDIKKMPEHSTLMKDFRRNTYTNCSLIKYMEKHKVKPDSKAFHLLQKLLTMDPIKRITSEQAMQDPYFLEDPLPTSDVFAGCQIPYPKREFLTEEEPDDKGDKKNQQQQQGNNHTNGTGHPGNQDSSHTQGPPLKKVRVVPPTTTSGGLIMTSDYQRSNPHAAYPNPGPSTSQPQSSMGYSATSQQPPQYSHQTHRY
CDK8, sequence (P24863 whole entry partner): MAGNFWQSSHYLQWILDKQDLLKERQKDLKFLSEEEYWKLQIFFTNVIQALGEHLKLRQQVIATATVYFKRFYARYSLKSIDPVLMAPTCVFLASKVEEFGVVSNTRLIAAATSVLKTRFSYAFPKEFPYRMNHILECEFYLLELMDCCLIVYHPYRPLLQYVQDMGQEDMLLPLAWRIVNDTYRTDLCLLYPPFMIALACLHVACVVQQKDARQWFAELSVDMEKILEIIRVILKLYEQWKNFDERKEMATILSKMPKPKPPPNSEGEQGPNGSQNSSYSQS
CDK19, sequence (Q9BWU1 whole entry): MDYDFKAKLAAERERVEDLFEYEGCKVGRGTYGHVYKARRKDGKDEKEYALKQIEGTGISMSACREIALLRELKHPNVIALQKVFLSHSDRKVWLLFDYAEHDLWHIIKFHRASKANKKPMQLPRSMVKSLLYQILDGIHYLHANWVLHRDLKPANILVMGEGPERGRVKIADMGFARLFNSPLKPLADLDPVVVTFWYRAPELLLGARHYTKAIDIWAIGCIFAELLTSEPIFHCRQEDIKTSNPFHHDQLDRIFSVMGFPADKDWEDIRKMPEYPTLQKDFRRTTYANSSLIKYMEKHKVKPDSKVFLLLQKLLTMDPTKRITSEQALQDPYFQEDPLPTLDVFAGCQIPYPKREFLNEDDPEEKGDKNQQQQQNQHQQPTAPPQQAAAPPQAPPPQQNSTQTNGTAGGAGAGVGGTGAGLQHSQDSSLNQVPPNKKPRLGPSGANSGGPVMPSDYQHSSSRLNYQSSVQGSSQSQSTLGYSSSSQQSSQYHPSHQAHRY
CDK19, sequence (P24863 whole entry partner): as the sequence (P24863 whole entry partner) above

`CN(C)C(=O)Cn1cc(-c2ccc(-c3cncc4ccccc34)cc2)cn1` [BI-1347, reference compound] was tested, and the “effect on expression of CDK8/19-regulated genes” value (CDK8/19-regulated genes; CDK8/19 double-knockout (dKO) 293 cells) was “had no effect in dKO cells”, the “stability of transcriptional changes after wash-off” value (CDK8/19-regulated genes; HEK-293, 200 nM for 3 days, then 24 hrs and 48 hrs after wash-off) was “largely maintained 24 hrs after wash-off but mostly disappeared 48 hrs after wash-off” and the “effect on expression of CDK8/19-regulated genes” value (CDK8/19-regulated genes; wild-type HEK-293 cells) was “had similar effects on the expression of the tested genes”. For the same compound, the “growth inhibition, first two passages (14 days)” value (Jurkat cells [1]) was “had a stronger growth inhibition effect than the PROTAC IA7886”, the “growth rates in later passages” value (Jurkat cells [1]; up to 53 days) was “growth rates of BI-1347 treated cells were increasing” and the “growth inhibition over 60 days” value (MV4-11 cells) was “strongly inhibited MV4-11 cells for the first 4 passages (33 days) but after that the cells became fully resistant to the kinase inhibitor”. The “increase of the cell number upon removal of drug” value (Jurkat cells [2]) was 7.1 fold, the IC50 (KMS-12-BM cells) was greater than 1000 nM and the “growth inhibition over 20 days, order of efficacy” value (SK-MM-2 cells) was “BI1347<IA7886<Senexin C<IA7843”.
In the case of `N#Cc1ccc2nccc(NCCc3ccc4cc(C(=O)N5CCN(C(=O)CCCCCCCCCCNC(=O)CCCNc6cccc7c6C(=O)N(C6CCC(=O)NC6=O)C7=O)CC5)ccc4c3)c2c1` (stereo not shown) [IA7843], the “% CDK8 remaining” value (CDK8; 24 hours, tested at 1 μM) is reported as 13%, the DC50 (CDK8; concentration degrading CDK8 to half of level in untreated cells) is reported as 46 nM and the DC50 (CDK19) is reported as 1000 nM.
`CN(C)C(=O)c1ccc(N2CCCN(c3ccnc4sc(C(N)=O)c(N)c34)CC2)cc1` [SNX631-6, reference compound] was tested, and the IC50 (RPMI 8226 cells) was greater than 1000 nM.
